# Experiments:
# [1] = test system: infecting bacteria of urine samples; experiment: antibiotics disc inhibition zone, urine samples (standard analysis); format: cell-based
# Description: A standard analysis (urine culture colony count) was performed to evaluate bacterial load (Table 5a) and antibiotic susceptibility (Table 5b).
# [2] = test system: infecting bacteria of urine samples; experiment: BLT antibiotic susceptibility of urine samples; format: cell-based; set-up: BLT (luminescence): unit not given here; conditions: for BLT (luminescence): 3 hrs 37 C, concentrations given in Table 5; on antibiotic susceptibility of urine samples: key: R = resistant; S = susceptible
# Description: Six fresh urine samples were obtained from a local clinic and examined for bacteriuria (>10^5 cells/mL urine) and the antibiotic susceptibility of the infecting bacteriuria. A tube containing a an antibiotic mixture that would eliminate all infecting bacteria but not effect the lux cells (Ampicillin, Kanamycin, Tetracyclin, and Chloramphenicol) served as a control.
# Each urine sample was diluted in Medium 1 to yield a final concentration of 3%. 0.1 mL of the diluted samples were then incubated for 3 hrs. at 37 degrees Celsius in a microtitre plate, with or without an antimicrobial substance at the concentrations given in Table 5).
# An equal volume of Medium 2 containing 10 ng/ml autoinducer and supplemented with 10^6 of the lux cells was then added to each well. The microtiter plate was then incubated at 28 degrees/Celsius and the luminescence was measured using a plate reader luminometer.
# Luminescence was measured in the absence of antibiotics, in the presence of a mixture of antibiotics and in the presence of a single antibiotic from the mixture.
# When the ratio of the luminescence measured in the presence of the single antibiotic to that measured in the presence of the antibiotic mix exceeds a second predetermined constant (e.g. 3) then the infecting bacteria are […] to the antibiotic.
# S. aureus = experiment: BLT (bioluminescence test) MIC determination
# E. coli (W4110) = experiment: overnight disk diffusion test; format: cell-based; conditions: 16 hrs 37 C
# Description: (§1) Infecting bacteria (10^6 cells/ml from overnight grown cultures) were spread on LA plates on which 15 mm disks, saturated with various antibiotics, had been placed. After incubating the plates at 37 degrees Celsius for 16 hrs the zone of inhibition was determined for each strain. (Abbreviations used in FIG. 1a and Table 1a: CAP—Chloramphenicol; KAN—Kanamycin; AMP—Ampicillin; CEP—Cephamezin GEN—Gentamycin).
# S. typhimirium (772) = experiment: overnight disk diffusion test; format: cell-based; conditions: 16 hrs 37 C
# Description: as §1
# P. aeroginosa = experiment: overnight disk diffusion test; format: cell-based; conditions: disk 10 ppm, 16 hrs 37 C
# Description: as §1
# S. typhi = experiment: microbe, parasite or virus in culture; format: cell-based
Compound,"Antibiotics disc inhibition zone ([1]; urine sample 1, 30 ppm) [mm]","Antibiotics disc inhibition zone ([1]; urine sample 2, 30 ppm) [mm]","Antibiotics disc inhibition zone ([1]; urine sample 3, 30 ppm) [mm]","Antibiotics disc inhibition zone ([1]; urine sample 4, 30 ppm) [mm]","Antibiotics disc inhibition zone ([1]; urine sample 6, 30 ppm) [mm]",antibiotic susceptibility of urine samples ([2]; urine sample 1),"BLT (luminescence) ([2]; urine sample 1, 3% urine)",antibiotic susceptibility of urine samples ([2]; urine sample 2),"BLT (luminescence) ([2]; urine sample 2, 3% urine)",antibiotic susceptibility of urine samples ([2]; urine sample 3),"BLT (luminescence) ([2]; urine sample 3, 3% urine)",antibiotic susceptibility of urine samples ([2]; urine sample 4),"BLT (luminescence) ([2]; urine sample 4, 3% urine)",antibiotic susceptibility of urine samples ([2]; urine sample 5),"BLT (luminescence) ([2]; urine sample 5, 3% urine)",antibiotic susceptibility of urine samples ([2]; urine sample 6),"BLT (luminescence) ([2]; urine sample 6, 3% urine)",other results
CO/N=C(\C(=O)N[C@@H]1C(=O)N2C(C(=O)O)=C(COC(N)=O)CS[C@H]12)c1ccco1 [Cefuroxime],6,7,5,5,4,S,55,S,1.36,S,2.4,S,31,S,8.6,S,0.76,
CC1(C)S[C@@H]2[C@H](NC(=O)Cc3ccccc3)C(=O)N2[C@H]1C(=O)O [Penicillin G],,,,,,R,0.5,R,0.93,S,4,S,30,R,0.417,S,11,"Antibiotics disc inhibition zone ([1]; urine sample 1, 40 ppm): 0 mm; Antibiotics disc inhibition zone ([1]; urine sample 2, 40 ppm): 0 mm; Antibiotics disc inhibition zone ([1]; urine sample 3, 40 ppm): 3 mm; Antibiotics disc inhibition zone ([1]; urine sample 4, 40 ppm): 7 mm; Antibiotics disc inhibition zone ([1]; urine sample 6, 40 ppm): 2 mm"
Gentamycin [Gentamicin],,,,,,S,53,S,44,S,30,S,36,S,11.5,S,35,"LU, fold increase over control (no antibiotics added) (S. aureus; 0.39 ppm): 1.2; LU, fold increase over control (no antibiotics added) (S. aureus; 0.781 ppm): 1.2; LU, fold increase over control (no antibiotics added) (S. aureus; 1.562 ppm): 1.3; LU, fold increase over control (no antibiotics added) (S. aureus; 3.125 ppm): 1.5; LU, fold increase over control (no antibiotics added) (S. aureus; 6.25 ppm): 3.1; LU, fold increase over control (no antibiotics added) (S. aureus; 12.5 ppm): 3.6; LU, fold increase over control (no antibiotics added) (S. aureus; 25 ppm): 3.4; LU, fold increase over control (no antibiotics added) (S. aureus; 50 ppm): 6.5; MIC (S. aureus; lowest concentration giving two-fold increase of tester luminescence above control): 3.12-6.2 ppm; zone of inhibition (E. coli (W4110); disk 10 ppm): 15 mm; zone of inhibition (S. typhimirium (772); disk 10 ppm): 20 mm; zone of inhibition (P. aeroginosa): 20 mm; Antibiotics disc inhibition zone ([1]; urine sample 1, 10 ppm): 4 mm; Antibiotics disc inhibition zone ([1]; urine sample 2, 10 ppm): 5 mm; Antibiotics disc inhibition zone ([1]; urine sample 3, 10 ppm): 6 mm; Antibiotics disc inhibition zone ([1]; urine sample 4, 10 ppm): 2 mm; Antibiotics disc inhibition zone ([1]; urine sample 6, 10 ppm): 5 mm"
"NC[C@H]1O[C@H](O[C@H]2[C@H](O)[C@@H](O[C@H]3O[C@H](CO)[C@@H](O)[C@H](N)[C@H]3O)[C@H](N)C[C@@H]2N)[C@H](O)[C@@H](O)[C@@H]1O [Kanamicin, Kanamycin]",5,5,5,2,1,S,64,S,42,S,49,S,30,S,16,S,38,"LU, fold increase over control (no antibiotics added) (S. typhi; 0.117 ppm): 1.4; LU, fold increase over control (no antibiotics added) (S. typhi; 0.234 ppm): 1.62; LU, fold increase over control (no antibiotics added) (S. typhi; 0.468 ppm): 1.49; LU, fold increase over control (no antibiotics added) (S. typhi; 0.937 ppm): 1.82; LU, fold increase over control (no antibiotics added) (S. typhi; 1.875 ppm): 2.3; LU, fold increase over control (no antibiotics added) (S. typhi; 3.75 ppm): 2.45; LU, fold increase over control (no antibiotics added) (S. typhi; 7.5 ppm): 3.13; LU, fold increase over control (no antibiotics added) (S. typhi; 15 ppm): 5.79; LU, fold increase over control (no antibiotics added) (S. typhi; 30 ppm): 6.27; MIC (S. typhi; Salmonella enterica, TYPHI, lowest concentration giving two-fold increase of tester luminescence above control): ~1 µg/mL; zone of inhibition (E. coli (W4110); disk 30 ppm): 25 mm; zone of inhibition (S. typhimirium (772); disk 30 ppm): 20 mm"
Cc1onc(-c2ccccc2Cl)c1C(=O)N[C@@H]1C(=O)N2[C@@H]1SC(C)(C)[C@@H]2C(=O)[O-].[Na+] [Orbenil],,,,,,R,0.8,R,0.087,R,0.76,S,30,R,0.63,R,0.18,"Antibiotics disc inhibition zone ([1]; urine sample 1, 10 ppm): 0 mm; Antibiotics disc inhibition zone ([1]; urine sample 2, 10 ppm): 0 mm; Antibiotics disc inhibition zone ([1]; urine sample 3, 10 ppm): 0 mm; Antibiotics disc inhibition zone ([1]; urine sample 4, 10 ppm): 6 mm; Antibiotics disc inhibition zone ([1]; urine sample 6, 10 ppm): 0 mm"
CC1(C)S[C@@H]2[C@H](NC(=O)[C@H](N)c3ccccc3)C(=O)N2[C@H]1C(=O)O [Ampicillin],,,,,,R,1,R,0.144,S,5.11,S,30,R,0.42,S,18,"zone of inhibition (E. coli (W4110); disk 40 ppm): 40 mm; zone of inhibition (S. typhimirium (772); disk 40 ppm): 30 mm; Antibiotics disc inhibition zone ([1]; urine sample 1, 40 ppm): 0 mm; Antibiotics disc inhibition zone ([1]; urine sample 2, 40 ppm): 0 mm; Antibiotics disc inhibition zone ([1]; urine sample 3, 40 ppm): 5 mm; Antibiotics disc inhibition zone ([1]; urine sample 4, 40 ppm): 7 mm; Antibiotics disc inhibition zone ([1]; urine sample 6, 40 ppm): 5 mm"
Cc1nnc(SCC2=C(C(=O)O)N3C(=O)[C@@H](NC(=O)Cn4cnnn4)[C@H]3SC2)s1 [Cephamezin],7,5,7,5,6,S,61,S,2.3,S,21.8,S,30,S,16,S,36.8,zone of inhibition (E. coli (W4110); disk 30 ppm): 30 mm; zone of inhibition (S. typhimirium (772); disk 30 ppm): 40 mm

# — patent US20110097745A1, “Method For Detecting Microbes” (priority 2007, published 2011)
